Measured values taken from PMC12139501, “Acetyl-11-keto-β-boswellic acid alleviates hepatic metabolic dysfunction by inhibiting MGLL activity” (Journal of Lipid Research, 2025).

Legend:
[1] = target: T1, monoacylglycerol lipase (MGLL) (Mus musculus, UniProt O35678); assay: ITC with purified MGLL; supported by pull-down and LC-MS activity assay in hepatocyte lysate; assay type: binding; parameters: N-terminal 6×His fusion protein of the mouse MGLL domain
T1 sequence (O35678 1-303): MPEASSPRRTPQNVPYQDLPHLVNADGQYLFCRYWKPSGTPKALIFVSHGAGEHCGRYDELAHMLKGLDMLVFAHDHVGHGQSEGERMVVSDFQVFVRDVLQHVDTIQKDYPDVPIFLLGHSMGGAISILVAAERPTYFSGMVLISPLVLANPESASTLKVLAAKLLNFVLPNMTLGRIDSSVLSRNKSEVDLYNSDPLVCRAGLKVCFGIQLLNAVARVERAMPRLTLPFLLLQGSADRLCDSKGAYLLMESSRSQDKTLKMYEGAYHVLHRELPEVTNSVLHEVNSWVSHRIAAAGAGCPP

[2] = target: T1, monoacylglycerol lipase (MGLL); assay: LC-MS 2-oleoylglycerol hydrolysis assay in hepatocyte lysate, […]; assay type: cell-based; parameters: endogenous or adenovirus-overexpressed MGLL in primary hepatocyte homogenate

**Q.** How did the Kd [1] turn out when `CC(=O)O[C@@H]1CC[C@@]2(C)[C@@H](CC[C@]3(C)[C@@H]2C(=O)C=C2[C@@H]4[C@@H](C)[C@H](C)CC[C@]4(C)CC[C@]23C)[C@@]1(C)C(=O)O` [AKBA] was run?
**A.** 40.6 µM

**Q.** `COC(=O)[C@]1(C)CC[C@]2(C)CC[C@]3(C)C4=CC=C5C(=CC(=O)C(O)=C5C)[C@]4(C)CC[C@@]3(C)[C@@H]2C1` [pristimerin] was tested. Which “LC-MS 2-oleoylglycerol hydrolysis assay in hepatocyte lysate, 50 μM” value [2] did it give?
**A.** both AKBA and pristimerin significantly reduced MGLL activity in wild-type primary hepatocytes as well as in those overexpressing MGLL
